Results from patent publication US8192962B2, “Processes for detecting toxic substances” (Daikin Industries, Ltd., priority 2001, dated 2012).

Tested on: Metabolism protein genes
Assay: DNA chip mRNA expression in yeast, metabolism protein genes (Table 7)
Type: cell-based, Saccharomyces cerevisiae S288C
In short: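 Measured as treated-to-untreated fluorescence ratio on a full-genome yeast DNA chip. Cells (S288C, YPD, 25° C.) were exposed in log phase for two hours to one chemical, dosed to curb growth without killing.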

## manganese ethylenebis(dithiocarbamate) [(8)]
Yeast gene YAL012W
  The level of expressed mRNA in the presence of chemical substance/The level of expressed mRNA in the absence of chemical substance: 0.7
Yeast gene YAL038W
  The level of expressed mRNA in the presence of chemical substance/The level of expressed mRNA in the absence of chemical substance: 1.1
Yeast gene YBR003W
  level of expressed mRNA in the presence/in the absence of chemical substance: 0.9
Yeast gene YBR011C
  level of expressed mRNA in the presence/in the absence of chemical substance: 1.3
Yeast gene YBR020W
  level of expressed mRNA in the presence/in the absence of chemical substance: 1.0
Yeast gene YBR023C
  The level of expressed mRNA in the presence of chemical substance/The level of expressed mRNA in the absence of chemical substance: 0.5
Yeast gene YBR029C
  The level of expressed mRNA in the presence of chemical substance/The level of expressed mRNA in the absence of chemical substance: 0.7
Yeast gene YBR183W
  The level of expressed mRNA in the presence of chemical substance/The level of expressed mRNA in the absence of chemical substance: 1.0
Yeast gene YBR222C
  The level of expressed mRNA in the presence of chemical substance/The level of expressed mRNA in the absence of chemical substance: 0.6
Yeast gene YBR256C
  The level of expressed mRNA in the presence of chemical substance/The level of expressed mRNA in the absence of chemical substance: 2.3
Yeast gene YCL009C
  The level of expressed mRNA in the presence of chemical substance/The level of expressed mRNA in the absence of chemical substance: 1.1
Yeast gene YCL064C
  The level of expressed mRNA in the presence of chemical substance/The level of expressed mRNA in the absence of chemical substance: 2.4
Yeast gene YCR010C
  level of expressed mRNA in the presence/in the absence of chemical substance: 0.8
Yeast gene YCR034W
  level of expressed mRNA in the presence/in the absence of chemical substance: 0.9
Yeast gene YCR048W
  The level of expressed mRNA in the presence of chemical substance/The level of expressed mRNA in the absence of chemical substance: 0.8
Yeast gene YCR098C
  The level of expressed mRNA in the presence of chemical substance/The level of expressed mRNA in the absence of chemical substance: 1.0
Yeast gene YDR019C
  The level of expressed mRNA in the presence of chemical substance/The level of expressed mRNA in the absence of chemical substance: 0.7
Yeast gene YDR050C
  level of expressed mRNA in the presence/in the absence of chemical substance: 1.3
Yeast gene YDR073W
  level of expressed mRNA in the presence/in the absence of chemical substance: 1.3
Yeast gene YDR123C
  level of expressed mRNA in the presence/in the absence of chemical substance: 1.3
Yeast gene YDR178W
  level of expressed mRNA in the presence/in the absence of chemical substance: 0.9
Yeast gene YDR277C
  level of expressed mRNA in the presence/in the absence of chemical substance: 1.7
Yeast gene YDR284C
  level of expressed mRNA in the presence/in the absence of chemical substance: 0.9
Yeast gene YDR345C
  level of expressed mRNA in the presence/in the absence of chemical substance: 1.2
Yeast gene YDR380W
  The level of expressed mRNA in the presence of chemical substance/The level of expressed mRNA in the absence of chemical substance: 0.2
Yeast gene YDR400W
  level of expressed mRNA in the presence/in the absence of chemical substance: 1.4
Yeast gene YDR408C
  level of expressed mRNA in the presence/in the absence of chemical substance: 0.7
Yeast gene YDR483W
  level of expressed mRNA in the presence/in the absence of chemical substance: 1.0
Yeast gene YDR497C
  The level of expressed mRNA in the presence of chemical substance/The level of expressed mRNA in the absence of chemical substance: 0.6
Yeast gene YDR502C
  The level of expressed mRNA in the presence of chemical substance/The level of expressed mRNA in the absence of chemical substance: 0.9
Yeast gene YDR516C
  The level of expressed mRNA in the presence of chemical substance/The level of expressed mRNA in the absence of chemical substance: 1.3
Yeast gene YEL063C
  level of expressed mRNA in the presence/in the absence of chemical substance: 0.6
Yeast gene YER015W
  level of expressed mRNA in the presence/in the absence of chemical substance: 1.1
Yeast gene YER026C
  The level of expressed mRNA in the presence of chemical substance/The level of expressed mRNA in the absence of chemical substance: 0.8
Yeast gene YER053C
  The level of expressed mRNA in the presence of chemical substance/The level of expressed mRNA in the absence of chemical substance: 1.3
Yeast gene YER069W
  The level of expressed mRNA in the presence of chemical substance/The level of expressed mRNA in the absence of chemical substance: 1.5
Yeast gene YER081W
  level of expressed mRNA in the presence/in the absence of chemical substance: 0.6
Yeast gene YER096W
  The level of expressed mRNA in the presence of chemical substance/The level of expressed mRNA in the absence of chemical substance: 1.0
Yeast gene YER120W
  level of expressed mRNA in the presence/in the absence of chemical substance: 0.6
Yeast gene YER178W
  The level of expressed mRNA in the presence of chemical substance/The level of expressed mRNA in the absence of chemical substance: 0.8
Yeast gene YFL011W
  level of expressed mRNA in the presence/in the absence of chemical substance: 0.8
Yeast gene YFL014W
  The level of expressed mRNA in the presence of chemical substance/The level of expressed mRNA in the absence of chemical substance: 3.4
Yeast gene YFL030W
  The level of expressed mRNA in the presence of chemical substance/The level of expressed mRNA in the absence of chemical substance: 1.6
Yeast gene YFL031W
  The level of expressed mRNA in the presence of chemical substance/The level of expressed mRNA in the absence of chemical substance: 0.7
Yeast gene YFL056C
  The level of expressed mRNA in the presence of chemical substance/The level of expressed mRNA in the absence of chemical substance: 18.5
Yeast gene YFL057C
  The level of expressed mRNA in the presence of chemical substance/The level of expressed mRNA in the absence of chemical substance: 18.0
Yeast gene YFR047C
  The level of expressed mRNA in the presence of chemical substance/The level of expressed mRNA in the absence of chemical substance: 1.0
Yeast gene YGL012W
  level of expressed mRNA in the presence/in the absence of chemical substance: 0.8
Yeast gene YGL022W
  The level of expressed mRNA in the presence of chemical substance/The level of expressed mRNA in the absence of chemical substance: 0.4
Yeast gene YGL115W
  level of expressed mRNA in the presence/in the absence of chemical substance: 1.0
Yeast gene YGL126W
  The level of expressed mRNA in the presence of chemical substance/The level of expressed mRNA in the absence of chemical substance: 0.7
Yeast gene YGL205W
  level of expressed mRNA in the presence/in the absence of chemical substance: 1.2
Yeast gene YGL209W
  The level of expressed mRNA in the presence of chemical substance/The level of expressed mRNA in the absence of chemical substance: 1.1
Yeast gene YGL248W
  The level of expressed mRNA in the presence of chemical substance/The level of expressed mRNA in the absence of chemical substance: 0.8
Yeast gene YGR037C
  The level of expressed mRNA in the presence of chemical substance/The level of expressed mRNA in the absence of chemical substance: 1.4
Yeast gene YGR055W
  The level of expressed mRNA in the presence of chemical substance/The level of expressed mRNA in the absence of chemical substance: 1.1
Yeast gene YGR096W
  level of expressed mRNA in the presence/in the absence of chemical substance: 1.0
Yeast gene YGR191W
  level of expressed mRNA in the presence/in the absence of chemical substance: 0.7
Yeast gene YGR194C
  The level of expressed mRNA in the presence of chemical substance/The level of expressed mRNA in the absence of chemical substance: 1.2
Yeast gene YGR204W
  level of expressed mRNA in the presence/in the absence of chemical substance: 0.4
Yeast gene YGR256W
  The level of expressed mRNA in the presence of chemical substance/The level of expressed mRNA in the absence of chemical substance: 2.2
Yeast gene YGR282C
  The level of expressed mRNA in the presence of chemical substance/The level of expressed mRNA in the absence of chemical substance: 1.0
Yeast gene YGR288W
  level of expressed mRNA in the presence/in the absence of chemical substance: 1.0
Yeast gene YHR025W
  level of expressed mRNA in the presence/in the absence of chemical substance: 0.8
Yeast gene YHR111W
  The level of expressed mRNA in the presence of chemical substance/The level of expressed mRNA in the absence of chemical substance: 1.3
Yeast gene YHR123W
  level of expressed mRNA in the presence/in the absence of chemical substance: 0.8
Yeast gene YHR137W
  The level of expressed mRNA in the presence of chemical substance/The level of expressed mRNA in the absence of chemical substance: 0.4
Yeast gene YHR174W
  The level of expressed mRNA in the presence of chemical substance/The level of expressed mRNA in the absence of chemical substance: 1.2
Yeast gene YHR176W
  The level of expressed mRNA in the presence of chemical substance/The level of expressed mRNA in the absence of chemical substance: 1.3
Yeast gene YHR210C
  level of expressed mRNA in the presence/in the absence of chemical substance: 1.3
Yeast gene YIL006W
  level of expressed mRNA in the presence/in the absence of chemical substance: 0.6
Yeast gene YIL045W
  The level of expressed mRNA in the presence of chemical substance/The level of expressed mRNA in the absence of chemical substance: 1.1
Yeast gene YIL107C
  The level of expressed mRNA in the presence of chemical substance/The level of expressed mRNA in the absence of chemical substance: 1.3
Yeast gene YIL154C
  The level of expressed mRNA in the presence of chemical substance/The level of expressed mRNA in the absence of chemical substance: 0.6
Yeast gene YIL155C
  The level of expressed mRNA in the presence of chemical substance/The level of expressed mRNA in the absence of chemical substance: 1.0
Yeast gene YIR034C
  The level of expressed mRNA in the presence of chemical substance/The level of expressed mRNA in the absence of chemical substance: 1.7
Yeast gene YIR036C
  The level of expressed mRNA in the presence of chemical substance/The level of expressed mRNA in the absence of chemical substance: 1.0
Yeast gene YJL031C
  The level of expressed mRNA in the presence of chemical substance/The level of expressed mRNA in the absence of chemical substance: 1.8
Yeast gene YJL068C
  The level of expressed mRNA in the presence of chemical substance/The level of expressed mRNA in the absence of chemical substance: 1.1
Yeast gene YJL088W
  The level of expressed mRNA in the presence of chemical substance/The level of expressed mRNA in the absence of chemical substance: 1.3
Yeast gene YJL099W
  The level of expressed mRNA in the presence of chemical substance/The level of expressed mRNA in the absence of chemical substance: 1.0
Yeast gene YJL121C
  level of expressed mRNA in the presence/in the absence of chemical substance: 1.0
Yeast gene YJL167W
  level of expressed mRNA in the presence/in the absence of chemical substance: 1.5
Yeast gene YJL172W
  The level of expressed mRNA in the presence of chemical substance/The level of expressed mRNA in the absence of chemical substance: 0.7
Yeast gene YJL216C
  level of expressed mRNA in the presence/in the absence of chemical substance: 1.9
Yeast gene YJL219W
  The level of expressed mRNA in the presence of chemical substance/The level of expressed mRNA in the absence of chemical substance: 1.5
Yeast gene YJR077C
  level of expressed mRNA in the presence/in the absence of chemical substance: 0.8
Yeast gene YJR137C
  The level of expressed mRNA in the presence of chemical substance/The level of expressed mRNA in the absence of chemical substance: 1.6
Yeast gene YJR143C
  level of expressed mRNA in the presence/in the absence of chemical substance: 0.7
Yeast gene YJR148W
  The level of expressed mRNA in the presence of chemical substance/The level of expressed mRNA in the absence of chemical substance: 0.6
